Measurements taken from publication PMC11905058, “Novel Leech Antimicrobial Peptides, Hirunipins: Real‐Time 3D Monitoring of Antimicrobial and Antibiofilm Mechanisms Using Optical Diffraction Tomography” (Advanced Science, 2025).
Converted amounts (≈) assume the structure as drawn. Read-outs that look alike come from different tables or passages of the source. No end group written: not given here.

Key:
[1] = test system: Escherichia coli [KCTC 1682]; type: cell-based
Protocol: (§1) The MICs of the peptides were measured by the Clinical and Laboratory Standards Institute (CLSI) broth microdilution method, as outlined in a previous study.^[ [26], [27] ^]
(§2) Minimal Inhibitory Concentrations (MICs): Bacteria were grown to mid-logarithmic phase and diluted in Mueller-Hinton broth (MHB) (Difco). The bacterial suspension (1×10^6 CFU/well) was added to a 96-well microtiter plate along with a two-fold serial dilution of samples. The plate was incubated at 37 °C for 24 hours and the bacterial growth inhibition was assessed by measuring the optical density using an ELISA plate reader. The minimum inhibitory concentration (MIC) was defined as the lowest concentration of samples that prevented visible bacterial growth.

[2] = test system: Pseudomonas aeruginosa [KCTC 1637]; type: cell-based
Protocol: as §1, §2

[3] = test system: Staphylococcus aureus [KCTC1621]; type: cell-based
Protocol: as §1, §2

[4] = test system: Staphylococcus epidermidis [KCTC 1917]; type: cell-based
Protocol: as §1, §2

MDRE (328-84) = type: cell-based, Enterobacter cloacae
Protocol: as §1
(§3) Microbial Strains and Cell Lines: Multiple bacterial strains were used in this study. Standard stains included Escherichia coli (KCTC 1682), Pseudomonas aeruginosa (KCTC 1637), Staphylococcus aureus (KCTC1621) and Staphylococcus epidermidis (KCTC 1917) supplied from the Korean Collection for Type Cultures (KCTC) of the Korea Research Institute of Bioscience and Biotechnology (KRIBB). Clinically isolated multidrug-resistant bacteria included multidrug-resistant Klebsiella pneumonia (MDRKP 328-83), multidrug-resistant Acinetobacter baumannii (MDRAB 329-53), multidrug-resistant Pseudomonas aeruginosa (MDRPA 314-69), multidrug-resistant Enterobacter cloacae (MDRE 328-84) and multidrug-resistant Escherichia coli (MDREC 329-66) provided from Hospital of Chosun University, Korea. All bacterial strains were stored in 20% glycerol at −80 °C. For the subsequent experiments, the bacteria were recovered and cultured in the corresponding enrichment broth at 37 °C. The mouse macrophage RAW264.7, mouse fibroblast NIH-3T3 and human keratinocyte HaCat cells were cultured in Dulbecco’s modified Eagle’s medium (DMEM), supplemented with 10% (v/v) of fetal bovine serum (Sigma-Aldrich), 100 U/mL of penicillin and 0.1 mg/mL of streptomycin, at 37 °C in the presence of 5% CO2
as §2

E. coli (KCTC 1682) [5] = experiment: PI influx assay by flow cytometry; type: cell-based, Escherichia coli; details: 16 µg mL^−1, 60 min, 37 °C, PI 10 µg/mL, untreated 6.9%
Protocol: (§4) Damage to membrane integrity induced by the peptides was evaluated by flow cytometry of E. coli (KCTC 1682) and S. aureus (KCTC 1621) cells stained with the membrane‐impermeable dye PI, as previously described.^[ [26], [27] ^]
(§5) Flow Cytometry Analysis: E. coli (KCTC 1682) and S. aureus (KCTC 1621) were cultured in LB broth until they reached mid-log-phase, then washed and resuspended in PBS to a density of 2 × 10^5 CFU/mL. The bacterial suspension was incubated with the samples and 10 µg/mL of propidium iodide (PI), a fluorescent dye, at 37 °C for 1 hour in the dark. The samples were then centrifuged and washed twice in PBS to remove any excess dye. The fluorescence of PI, which indicates membrane damage, was measured by FACS flow cytometer (Agilent, ACEA Bioscience Inc.) using a laser excitation wavelength of 488 nm.

S. aureus (KCTC 1621) [6] = experiment: PI influx assay by flow cytometry; type: cell-based, Staphylococcus aureus; details: 16 µg mL^−1, 60 min, 37 °C, PI 10 µg/mL, untreated 9.5%
Protocol: as §4, §5

E. coli (KCTC 1682) [7] = experiment: Multipassage drug resistance study; type: cell-based, Escherichia coli; details: continuous exposure at sub-MIC (0.5×MIC)
Protocol: The MICs of hirunipin 2 and antibiotics were determined, and the concentration of each sub‐MIC (0.5×MIC) of E. coli (KCTC 1682) was diluted to 1 × 10^6 CFU mL^−1 with MHB for the next passaged MIC determination. This procedure was repeated fifteen times. Ciprofloxacin and tetracycline were used as the controls.

MDRAB (329-53) [8] = test system: MDRAB (329-53)
Protocol: Synergy testing by checkerboard assay: Briefly, each 96-well microtiter plate was inoculated with two-fold serial dilutions of two antibiotics, ranging from 1/8 MIC to 2 MIC, such that one antibiotic was inoculated in the columns and the other in the rows. Then, MDRAB (329-53) cells were inoculated at a concentration of 1× 10^6 CFU/mL. The plates were incubated overnight under static conditions and observed visually.

S. aureus (KCTC 1621) [9] = experiment: Membrane depolarization assay (diSC3-5); type: cell-based, Staphylococcus aureus; details: diSC3-5 fluorescence, monitored 500 s
Protocol: The FL dye diSC3‐5 (3,3′‐dipropylthiadicarbocyanine iodide) was utilized to assess the depolarizing impact of peptides on the cytoplasmic membrane of S. aureus (KCTC 1621), following a previously established method.^[ [26], [27] ^]
Membrane Depolarization Assay: Briefly, mid-log phase S. aureus (KCTC 1621) was harvested and washed three times with 5 mM HEPES buffer (pH 7.4, containing 20 mM glucose), and resuspended to an OD600 of 0.05 in the same buffer. The cell suspension was incubated with 0.4 μM diSC3-5 for 90 min such that most of the dye molecules gathered at the cytoplasmic membrane. To equilibrate the cytoplasmic and external K^+ concentrations, KCl was added to the cell suspension containing diSC3-5 to obtain a final concentration of 100 mM, followed by incubating the cells at room temperature for 15−30 min, with peptide aliquots added to 2 mL of suspension. The fluorescence was recorded using a model RF-5301 PC fluorescence spectrophotometer (Shimadzu) at an excitation wavelength of 622 nm and an emission wavelength of 670 nm.

E. coli (KCTC 1682) [10] = type: cell-based, Escherichia coli; details: KCTC 1682, 24 h
Protocol: as §2, with “The salt sensitivity of the peptides was also analyzed. […] The MIC values in the physiological environment were determined as described above, and data were acquired from three independent assays performed in triplicate. Minimal” for “Minimal”

S. aureus (KCTC1621) = type: cell-based, Staphylococcus aureus; details: KCTC1621, 24 h
Protocol: as §2, with “The salt sensitivity of the peptides was also analyzed. […] The MIC values in the physiological environment were determined as described above, and data were acquired from three independent assays performed in triplicate. Minimal” for “Minimal”

MDRKP (328-83) = type: cell-based, Klebsiella pneumonia; details: 24 h
Protocol: as §1, §3, §2

MDRAB (329-53) [11] = type: cell-based, Acinetobacter baumannii; details: 24 h
Protocol: as §1, §3, §2

MDRPA (314-69) = type: cell-based, Pseudomonas aeruginosa; details: 24 h
Protocol: as §1, §3, §2

MDREC (329-66) = type: cell-based, Escherichia coli; details: 24 h
Protocol: as §1, §3, §2

[12] = CLSI broth microdilution in MHB, 1×10^6 CFU/well, 37 °C, 24 h, optical density
[13] = antibiotic in combination with hirunipin 2
[14] = in combination with hirunipin 2

CC[C@H](C)[C@H](NC(=O)CN)C(=O)NCC(=O)N[C@@H](C)C(=O)N[C@H](C(=O)N[C@@H](CC(C)C)C(=O)N[C@@H](CCCCN)C(=O)N[C@H](C(=O)N[C@@H](CC(C)C)C(=O)N[C@H](C(=O)N[C@H](C(=O)NCC(=O)N[C@@H](CC(C)C)C(=O)N1CCC[C@H]1C(=O)N[C@@H](C)C(=O)N[C@@H](CC(C)C)C(=O)N[C@H](C(=O)N[C@@H](CO)C(=O)N[C@@H](Cc1c[nH]c2ccccc12)C(=O)N[C@H](C(=O)N[C@@H](CCCCN)C(=O)N[C@@H](CCCNC(=N)N)C(=O)N[C@@H](CCCCN)C(=O)N[C@@H](CCCNC(=N)N)C(=O)N[C@@H](CCC(N)=O)C(=O)N[C@@H](CCC(N)=O)C(N)=O)[C@@H](C)CC)[C@@H](C)CC)[C@@H](C)O)[C@@H](C)O)C(C)C)C(C)C [Melittin, reference compound]
Minimum inhibitory concentration (MIC), Escherichia coli [KCTC 1682] [1, 12]: 32 µg/mL (≈ 11.2 µM) | Minimum inhibitory concentration (MIC), Pseudomonas aeruginosa [KCTC 1637] [2, 12]: 32 µg/mL (≈ 11.2 µM) | Minimum inhibitory concentration (MIC), Staphylococcus aureus [KCTC1621] [3, 12]: 16 µg/mL (≈ 5.62 µM) | Minimum inhibitory concentration (MIC), Staphylococcus epidermidis [KCTC 1917] [4, 12]: 32 µg/mL (≈ 11.2 µM) | Minimum inhibitory concentrations, MDRE (328-84) (MDRE (328-84); clinically isolated multidrug-resistant Enterobacter cloacae, broth microdilution): 64 µg/mL (≈ 22.5 µM) | percentage of PI-positive cells, E. coli (KCTC 1682) (E. coli (KCTC 1682) [5]): 91.6% | percentage of PI-positive cells, S. aureus (KCTC 1621) (S. aureus (KCTC 1621) [6]): 99.5%

CN(C)[C@@H]1C(O)=C(C(N)=O)C(=O)[C@@]2(O)C(O)=C3C(=O)c4c(O)cccc4[C@@](C)(O)[C@H]3C[C@@H]12 [TET, Tetracycline]
fold-change in the MICs after 15 passages (E. coli (KCTC 1682) [7]): 32 fold | FICI: fractional inhibitory concentration index, FICA + FICB (MDRAB (329-53) [8]; [13]): 0.25 | Interpretation of FICI (MDRAB (329-53) [8]; [13]): synergy (FICI ≤ 0.5 was interpreted as synergy) | MICA: MIC of antibiotic alone (MDRAB (329-53) [8]; checkerboard, MDRAB, 1×10^6 CFU/mL): 16 µg/mL | FICA: fractional inhibitory concentration of antibiotic ([A] / MICA) (MDRAB (329-53) [8]; [14]): 0.125 | [A]: MIC of antibiotic in combination (MDRAB (329-53) [8]; [14]): 2 µg/mL

Buforin‐2 [Buforin-2]
effect on membrane potential (in words) (S. aureus (KCTC 1621) [9]): did not affect membrane potential | percentage of PI-positive cells, E. coli (KCTC 1682) (E. coli (KCTC 1682) [5]): 7.6% | percentage of PI-positive cells, S. aureus (KCTC 1621) (S. aureus (KCTC 1621) [6]): 9.6%

MKSINLKKVVKSIIKKILNSSF-NH2 [Hirunipin 2]
Minimum inhibitory concentration (MIC), Escherichia coli [KCTC 1682] ([1]; KCTC 1682, 24 h): 32 µg/mL | Minimum inhibitory concentration (MIC), Pseudomonas aeruginosa [KCTC 1637] ([2]; KCTC 1637, 24 h): 32 µg/mL | Minimum inhibitory concentration (MIC), Staphylococcus aureus [KCTC1621] ([3]; KCTC1621, 24 h): 32 µg/mL | Minimum inhibitory concentration (MIC), Staphylococcus epidermidis [KCTC 1917] ([4]; KCTC 1917, 24 h): 32 µg/mL | MIC against E. coli (KCTC 1682), 4 µM FeCl3 (E. coli (KCTC 1682) [10]): 8 µg/mL | MIC against E. coli (KCTC 1682), 6 µM NH4Cl (E. coli (KCTC 1682) [10]): 8 µg/mL | MIC against E. coli (KCTC 1682), 1 mM MgCl2 (E. coli (KCTC 1682) [10]): 32 µg/mL | MIC against E. coli (KCTC 1682), 2.5 mM CaCl2 (E. coli (KCTC 1682) [10]): 8 µg/mL | MIC against E. coli (KCTC 1682), 4.5 mM KCl (E. coli (KCTC 1682) [10]): 8 µg/mL | MIC against E. coli (KCTC 1682), 150 mM NaCl (E. coli (KCTC 1682) [10]): 16 µg/mL | MIC against E. coli (KCTC 1682), 25% Human serum (E. coli (KCTC 1682) [10]): 64 µg/mL | MIC against E. coli (KCTC 1682), Control (E. coli (KCTC 1682) [10]): 32 µg/mL | MIC against S. aureus (KCTC1621), 4 µM FeCl3 (S. aureus (KCTC1621)): 32 µg/mL | MIC against S. aureus (KCTC1621), 6 µM NH4Cl (S. aureus (KCTC1621)): 16 µg/mL | MIC against S. aureus (KCTC1621), 1 mM MgCl2 (S. aureus (KCTC1621)): 32 µg/mL | MIC against S. aureus (KCTC1621), 2.5 mM CaCl2 (S. aureus (KCTC1621)): 32 µg/mL | MIC against S. aureus (KCTC1621), 4.5 mM KCl (S. aureus (KCTC1621)): 32 µg/mL | MIC against S. aureus (KCTC1621), 150 mM NaCl (S. aureus (KCTC1621)): 32 µg/mL | MIC against S. aureus (KCTC1621), 25% Human serum (S. aureus (KCTC1621)): 64 µg/mL | MIC against S. aureus (KCTC1621), Control (S. aureus (KCTC1621)): 32 µg/mL | Minimum inhibitory concentrations, MDRKP (328-83) (MDRKP (328-83)): 128 µg/mL | Minimum inhibitory concentrations, MDRAB (329-53) (MDRAB (329-53) [11]): 64 µg/mL | Minimum inhibitory concentrations, MDRPA (314-69) (MDRPA (314-69)): 16 µg/mL | Minimum inhibitory concentrations, MDRE (328-84) (MDRE (328-84); 24 h): 32 µg/mL | Minimum inhibitory concentrations, MDREC (329-66) (MDREC (329-66)): 16 µg/mL | MICB: MIC of hirunipin 2 alone (MDRAB (329-53) [8]): 64 µg/mL
